In US7851484B2, “Certain chemical entities, compositions, and methods” (Cytokinetics, Inc., priority 2007, dated 2010):

Test system: SKM MF
Experiment: SKM MF AC1.4: ATPase screen of skeletal sarcomeric proteins with PK/LDH coupled enzyme system
Format: biochemical
Design: AC1.4 Median: unit not given here
Details: for SKM MF AC1.4 (μM): median value (footnote †)
Method: For example, test compounds can be assayed in a highly parallel fashion by using multiwell plates by placing the compounds either individually in wells or testing them in mixtures. Assay components including the target protein complex, coupling enzymes and substrates, and ATP can then be added to the wells and the absorbance or fluorescence of each well of the plate can be measured with a plate reader.
In some embodiments, the method uses a 384 well plate format and a 25 μL reaction volume. A pyruvate kinase/lactate dehydrogenase coupled enzyme system (Huang T G and Hackney D D. (1994) J Biol Chem 269(23):16493-501) can be used to measure the rate of ATP hydrolysis in each well. As will be appreciated by those in the art, the assay components are added in buffers and reagents. The incubation periods can be optimized to give adequate detection signals over the background. The assay can be done in real time giving the kinetics of ATP hydrolysis which increases the signal to noise ratio of the assay.
Just prior to screening, the actin, tropomyosin, and troponin complex are mixed together in the desired ratio (e.g., 7:1:1) to achieve maximal calcium regulation of the actin filament. The screen is conducted at a pCa=6.5. This calcium concentration is in the physiological range during muscle contraction.
To measure the generation of ADP during the reaction, a pyruvate kinase/lactate dehydrogenase/NADH coupled enzyme system (PK/LDH) is added to the actin. The myosin is kept separately. The plates are read in real time so that kinetic curves are obtained. These compounds are in DMSO and were already spotted onto the bottoms of 384 well plates at 10 to 40 μg/ml final concentration.

Molecule | AC1.4 Median | SKM MF AC1.4 (μM) | SKM MF AC1.4
CCC(CC)n1c(O)nc2ncc(Cl)c(/C=N\OCC(C)C)c21 [7-[(1Z)-2-(2-methylpropoxy)-2-azavinyl]-6-chloro-1-(ethylpropyl)imidazo[4,5-b]pyridin-2-ol] | 22.4644 |  | 
CCC(CC)n1c(O)nc2ncc(Cl)c(/C=N\OCc3ccccc3)c21 [7-[(1Z)-2-(phenylmethoxy)-2-azavinyl]-6-chloro-1-(ethylpropyl)imidazo[4,5-b]pyridin-2-ol] | 42.0392 |  | 
Oc1nc2ncc(Cl)cc2n1[C@H](Cc1ccccn1)CN1CCOCC1 [1-[(1R)-2-morpholin-4-yl-1-(2-pyridylmethyl)ethyl]-6-chloroimidazo[4,5-b]pyridin-2-ol] | 10.9895 |  | 
methyl 1-(ethylpropyl)-2-hydroxyimidazo[4,5-b]pyridine-7-carboxylate | 17.1735 |  | 
CC[C@@H](C)n1c(O)nc2ncc(Cl)cc21 [1-((1R)-1-methylpropyl)-6-chloroimidazo[4,5-b]pyridin-2-ol] | 10.6839 |  | 
C[C@H](c1ccccc1)n1c(O)nc2ncc(Cl)cc21 [1-((1R)-1-phenylethyl)-6-chloroimidazo[4,5-b]pyridin-2-ol] | 35.2255 |  | 
CCC(CC)n1c(O)nc2ncc(Br)cc21 [6-bromo-1-(pentan-3-yl)-1H-imidazo[4,5-b]pyridin-2-ol] | 1.1739 |  | 0.9 µM
1-(ethylpropyl)-6-methoxyimidazo[4,5-b]pyridin-2-ol | 24.0256 |  | 
1-(ethylpropyl)-6-(1-methylvinyl)imidazo[4,5-b]pyridin-2-ol | 10.1217 |  | 
CCC(CC)n1c(O)nc2ncc(Cl)c(/C=N/OCc3ccccc3)c21 [7-[(1E)-2-(phenylmethoxy)-2-azavinyl]-6-chloro-1-(ethylpropyl)imidazo[4,5-b]pyridin-2-ol] | 39.7159 |  | 
CC(C)(Cc1ccccc1)n1c(O)nc2ncc(Cl)cc21 [1-(1,1-dimethyl-2-phenylethyl)-6-chloroimidazo[4,5-b]pyridin-2-ol] | 8.2080 |  | 
6-bromo-1-(ethylpropyl)-7-methylimidazo[4,5-b]pyridin-2-ol | 2.2135 |  | 
CC(C)C[C@H](CN1CCOCC1)n1c(O)nc2ncc(Cl)cc21 [1-[(1R)-3-methyl-1-(morpholin-4-ylmethyl)butyl]-6-chloroimidazo[4,5-b]pyridin-2-ol] | 5.0392 |  | 
CC[C@@H](c1ccccc1)n1c(O)nc2ncc(Cl)cc21 [1-((1S)-1-phenylpropyl)-6-chloroimidazo[4,5-b]pyridin-2-ol] | 6.3763 |  | 
CC(C)(C)C(CO)n1c(O)nc2ncc(Cl)cc21 (centres unmarked) [1-[1-(tert-butyl)-2-hydroxyethyl]-6-chloroimidazo[4,5-b]pyridin-2-ol] | 48.1977 |  | 
CCC(CC)n1c(O)nc2ncc(C(F)(F)F)cc21 [1-(ethylpropyl)-6-(trifluoromethyl)imidazo[4,5-b]pyridin-2-ol] | 47.6668 |  | 
CC(C)C[C@H](CO)n1c(O)nc2ncc(Cl)cc21 [1-[(1R)-2-hydroxy-1-(2-methylpropyl)ethyl]-6-chloroimidazo[4,5-b]pyridin-2-ol] | 5.6431 |  | 

Molecule | AC1.4 Median | SKM MF AC1.4 (μM) | SKM MF AC1.4
6-chloro-1-(ethylpropyl)-7-(hydroxyethyl)imidazo[4,5-b]pyridin-2-ol | 30.7467 |  | 
CCC(CC)n1c(=O)[nH]c2ncccc21 [1-(pentan-3-yl)-1H-imidazo[4,5-b]pyridin-2(3H)-one] | 19.1998 |  | 19.2 µM
1-(ethylpropyl)-6-(2-methylprop-1-enyl)imidazo[4,5-b]pyridin-2-ol | 35.3882 |  | 
CCC(CC)n1c(O)nc2ncc(Cl)c(/C=N/OC(C)(C)C)c21 [7-[(1E)-2-(tert-butoxy)-2-azavinyl]-6-chloro-1-(ethylpropyl)imidazo[4,5-b]pyridin-2-ol] | 1.8945 |  | 
6-((1Z)prop-1-enyl)-1-(ethylpropyl)imidazo[4,5-b]pyridin-2-ol | 3.5145 |  | 
CC(C)(C)n1c(O)nc2ncc(Cl)cc21 [1-(tert-butyl)-6-chloroimidazo[4,5-b]pyridin-2-ol] | 9.8213 |  | 
CC[C@@H](CCO)n1c(O)nc2ncc(Cl)c(I)c21 [1-((1S)-1-ethyl-3-hydroxypropyl)-6-chloro-7-iodoimidazo[4,5-b]pyridin-2-ol] | 37.2312 |  | 
[1-(ethylpropyl)-6-ethynyl-2-hydroxyimidazo[4,5-b]pyridin-7-yl]-N-methylcarboxamide | 6.7023 |  | 
C[C@@H](c1ccccc1)n1c(O)nc2ncc(Cl)cc21 [1-((1S)-1-phenylethyl)-6-chloroimidazo[4,5-b]pyridin-2-ol] | 31.7670 |  | 
CC(n1c(O)nc2ncc(Cl)cc21)C(C)(C)C (centres unmarked) [6-chloro-1-(1,2,2-trimethylpropyl)imidazo[4,5-b]pyridin-2-ol] | 28.0697 |  | 
1-(ethylpropyl)-6-ethynyl-7-methylimidazo[4,5-b]pyridin-2-ol | 2.0265 |  | 
Oc1nc2ncc(Cl)cc2n1[C@H](Cc1ccccc1)CN1CCOCC1 [1-[(1R)-2-morpholin-4-yl-1-benzylethyl]-6-chloroimidazo[4,5-b]pyridin-2-ol] | 8.8149 |  | 
1-(ethylpropyl)-6-ethynyl-2-hydroxyimidazo[4,5-b]pyridine-7-carbonitrile | 0.1028 |  | 
6-chloro-1-(methylethyl)imidazo[4,5-b]pyridin-2-ol | 25.8589 |  | 
CCC(CC)n1c(O)nc2nc(Cl)c(Cl)cc21 [5,6-dichloro-1-(ethylpropyl)imidazo[4,5-b]pyridin-2-ol] | 8.6854 |  | 
1-(ethylpropyl)imidazo[4,5-b]pyridine-2,6-diol | 7.8719 |  | 

Next, values leading:

AC1.4 Median | SKM MF AC1.4 (μM) | SKM MF AC1.4 | Molecule
45.5421 |  |  | COCCCCn1c(O)nc2ncc(Cl)cc21 [6-chloro-1-[(methoxymethyl)propyl]imidazo[4,5-b]pyridin-2-ol]
25.2370 | 25.237^† μM |  | CCC(CC)Cn1c(O)nc2ncc(Cl)cc21 [6-chloro-1-(2-ethylbutyl)-1H-imidazo[4,5-b]pyridin-2-ol]
8.0408 |  |  | Oc1nc2ncc(Cl)cc2n1CCCC(F)(F)F [6-chloro-1-[(trifluoromethyl)propyl]imidazo[4,5-b]pyridin-2-ol]
28.2335 |  |  | tert-butyl 4-[6-chloro-1-(ethylpropyl)-2-hydroxyimidazo[4,5-b]pyridin-7-yl]-4-hydroxypiperidinecarboxylate
41.9678 | 41.9678^† μM |  | CCc1cnc2nc(O)n(C(CC)CC)c2c1 [6-ethyl-1-(pentan-3-yl)-1H-imidazo[4,5-b]pyridin-2-ol]
1.0215 |  |  | CCC(CC)n1c(O)nc2ncc(Cl)c(C#N)c21 [6-chloro-1-(ethylpropyl)-2-hydroxyimidazo[4,5-b]pyridine-7-carbonitrile]
11.0001 |  |  | CCC(CC)(Cn1c(O)nc2ncc(Cl)cc21)c1ccccc1 [6-chloro-1-(2-ethyl-2-phenylbutyl)imidazo[4,5-b]pyridin-2-ol]
1.7026 |  |  | COC(=O)c1c(Cl)cnc2nc(O)[nH]c12 [methyl 6-chloro-2-hydroxyimidazo[4,5-b]pyridine-7-carboxylate]
10.2517 |  | 5.7 µM | CCC(CC)n1c(O)nc2ncc(C)cc21 [6-methyl-1-(pentan-3-yl)-1H-imidazo[4,5-b]pyridin-2-ol]
13.3270 |  |  | 7-[(dimethylamino)methyl]-6-chloro-1-(ethylpropyl)benzimidazol-2-ol
18.2493 |  |  | methyl 4-[(2R)-2-(6-chloro-2-hydroxyimidazo[4,5-b]pyridinyl)butyl]piperazinecarboxylate
10.7918 |  |  | CCC(C(C)C)n1c(O)nc2ncc(Cl)cc21 (centres unmarked) [6-chloro-1-(1-ethyl-2-methylpropyl)imidazo[4,5-b]pyridin-2-ol]
0.1667 | 0.1563^† μM |  | C#Cc1cnc2nc(O)n(C(CC)CC)c2c1 [6-ethynyl-1-(pentan-3-yl)-1H-imidazo[4,5-b]pyridin-2-ol]
8.4752 |  |  | CCC(CO)n1c(O)nc2ncc(Cl)cc21 (centres unmarked) [6-chloro-1-(1-ethyl-2-hydroxyethyl)imidazo[4,5-b]pyridin-2-ol]
23.0211 |  |  | C=CCn1c(O)nc2ncc(Cl)c(I)c21 [6-chloro-7-iodo-1-prop-2-enylimidazo[4,5-b]pyridin-2-ol]
2.6422 |  |  | CCC(CC(C)C)n1c(O)nc2ncc(Cl)cc21 (centres unmarked) [6-chloro-1-(1-ethyl-3-methylbutyl)imidazo[4,5-b]pyridin-2-ol]
8.3875 |  |  | COC(=O)N1CCN(C[C@@H](CC(C)C)n2c(O)nc3cc(Cl)cnc32)CC1 [methyl 4-[(2R)-2-(6-chloro-2-hydroxyimidazo[4,5-b]pyridinyl)-4-methylpentyl]piperazinecarboxylate]
22.4532 |  |  | CC(Cn1c(O)nc2ncc(Cl)cc21)c1ccccc1 (centres unmarked) [6-chloro-1-(2-phenylpropyl)imidazo[4,5-b]pyridin-2-ol]
12.9347 | 12.9347^† μM |  | CCC(CC)n1c(O)nc2ncc(F)cc21 [6-fluoro-1-(pentan-3-yl)-1H-imidazo[4,5-b]pyridin-2-ol]
